target: ROCK2 (human) (UniProt O75116); assay: Inhibition of ROCK2 Kinase Activity
Sequence (O75116 whole entry, looked up): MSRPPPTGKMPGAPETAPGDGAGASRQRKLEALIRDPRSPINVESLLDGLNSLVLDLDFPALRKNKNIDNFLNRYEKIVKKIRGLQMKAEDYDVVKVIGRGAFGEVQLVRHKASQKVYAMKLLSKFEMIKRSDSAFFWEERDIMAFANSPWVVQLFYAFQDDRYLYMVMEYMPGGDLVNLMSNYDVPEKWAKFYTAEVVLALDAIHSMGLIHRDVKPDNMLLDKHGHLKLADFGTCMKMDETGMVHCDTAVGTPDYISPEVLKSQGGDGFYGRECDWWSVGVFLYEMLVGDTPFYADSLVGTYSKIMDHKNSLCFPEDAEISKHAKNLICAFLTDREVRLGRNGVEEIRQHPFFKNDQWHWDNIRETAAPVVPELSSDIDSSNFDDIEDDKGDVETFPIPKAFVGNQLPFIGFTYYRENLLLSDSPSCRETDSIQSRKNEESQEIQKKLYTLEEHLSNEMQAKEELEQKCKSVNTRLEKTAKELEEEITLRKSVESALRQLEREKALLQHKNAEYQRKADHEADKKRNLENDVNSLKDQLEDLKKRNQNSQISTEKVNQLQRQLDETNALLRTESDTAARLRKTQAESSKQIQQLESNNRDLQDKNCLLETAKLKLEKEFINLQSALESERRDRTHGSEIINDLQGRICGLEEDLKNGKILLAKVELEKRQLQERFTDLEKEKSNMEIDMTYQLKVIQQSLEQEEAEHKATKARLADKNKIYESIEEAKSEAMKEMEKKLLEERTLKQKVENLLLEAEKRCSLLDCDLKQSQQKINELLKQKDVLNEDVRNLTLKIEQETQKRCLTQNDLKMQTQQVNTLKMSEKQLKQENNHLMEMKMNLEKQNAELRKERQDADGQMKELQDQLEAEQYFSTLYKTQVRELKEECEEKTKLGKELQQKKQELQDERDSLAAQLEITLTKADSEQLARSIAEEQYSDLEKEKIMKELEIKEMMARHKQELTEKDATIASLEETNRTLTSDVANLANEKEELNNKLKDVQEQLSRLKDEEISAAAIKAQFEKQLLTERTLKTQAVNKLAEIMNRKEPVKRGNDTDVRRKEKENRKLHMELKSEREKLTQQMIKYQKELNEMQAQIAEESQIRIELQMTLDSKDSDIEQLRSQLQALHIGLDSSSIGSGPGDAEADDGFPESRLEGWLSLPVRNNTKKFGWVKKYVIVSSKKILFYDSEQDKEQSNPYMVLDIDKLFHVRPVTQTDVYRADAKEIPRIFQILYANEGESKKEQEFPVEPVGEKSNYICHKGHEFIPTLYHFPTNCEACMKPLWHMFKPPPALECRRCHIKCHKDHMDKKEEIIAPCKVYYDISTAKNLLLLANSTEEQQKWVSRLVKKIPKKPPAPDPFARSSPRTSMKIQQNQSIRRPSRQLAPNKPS

IC50 [µM] | SMILES
0.05 to 0.5 | N[C@H](CC(=O)N[C@H]1CCCc2ccccc21)c1ccc(C(=O)Nc2ccncc2)cc1
0.5 to 5 | NC(CNC(=O)c1cccc2ccccc12)c1ccc(C(=O)Nc2ccncc2)cc1 (stereo unspecified)
0.5 to 5 | CN(CC(N)c1ccc(C(=O)Nc2ccncc2)cc1)C(=O)Cc1c(F)cccc1Cl (stereo unspecified)
0.5 to 5 | NC(CNC(=O)c1ccccc1Oc1ccccc1)c1ccc(C(=O)Nc2ccncc2)cc1 (stereo unspecified)
0.05 to 0.5 | NC(CC(=O)NCc1ccccc1C(F)(F)F)c1ccc(C(=O)Nc2ccncc2)cc1 (stereo unspecified)
0.5 to 5 | CC(C)CCC(=O)NCC(N)c1ccc(C(=O)Nc2ccncc2)cc1 (stereo unspecified)
0.5 to 5 | CN(CC(N)c1ccc(C(=O)Nc2ccncc2)cc1)C(=O)C1(c2cccs2)CC1 (stereo unspecified)
0.05 to 0.5 | NC(CC(=O)N[C@H]1CCCc2ccccc21)c1ccc(C(=O)Nc2ccncc2)cc1 (stereo partly specified)
0.5 to 5 | NC(CNC(=O)Cc1ccncc1)c1ccc(C(=O)Nc2ccncc2)cc1 (stereo unspecified)
0.05 to 0.5 | NC(CNC(=O)c1ccc2ccccc2c1)c1ccc(C(=O)Nc2ccncc2)cc1 (stereo unspecified)
0.5 to 5 | CC1CCCC(C(=O)NCC(N)c2ccc(C(=O)Nc3ccncc3)cc2)C1 (stereo unspecified)
0.05 to 0.5 | Cc1ccccc1CNC(=O)NCC(N)c1ccc(C(=O)Nc2ccncc2)cc1 (stereo unspecified)
0.5 to 5 | NC(CNC(=O)c1c[nH]cn1)c1ccc(C(=O)Nc2ccncc2)cc1 (stereo unspecified)
0.05 to 0.5 | NC(CC(=O)NCc1ccc(Br)cc1F)c1ccc(C(=O)Nc2ccncc2)cc1 (stereo unspecified)
0.05 to 0.5 | CC(C)(NC(=O)CC(N)c1ccc(C(=O)Nc2ccncc2)cc1)c1ccccc1 (stereo unspecified)
0.5 to 5 | NC(CNC(=O)c1nccc2ccccc12)c1ccc(C(=O)Nc2ccncc2)cc1 (stereo unspecified)
0.05 to 0.5 | NC(CNC(=O)c1ccc2[nH]ccc2c1)c1ccc(C(=O)Nc2ccncc2)cc1 (stereo unspecified)
0.05 to 0.5 | NC(CNC(=O)C1(c2ccc(Cl)cc2)CC1)c1ccc(C(=O)Nc2ccncc2)cc1 (stereo unspecified)
0.5 to 5 | N[C@@H](CNC(=O)C1(c2ccc(F)cc2)CCCC1)c1ccc(C(=O)Nc2ccncc2)cc1
0.5 to 5 | NC(c1ccc(C(=O)Nc2ccncc2)cc1)C1CCCN1C(=O)Cc1cncc(Br)c1 (stereo unspecified)
0.5 to 5 | NC(CNC(=O)c1ccc(Cl)cc1)c1ccc(C(=O)Nc2ccncc2)cc1 (stereo unspecified)
0.5 to 5 | NC(CNC(=O)c1ccc2cc[nH]c2c1)c1ccc(C(=O)Nc2ccncc2)cc1 (stereo unspecified)
0.05 to 0.5 | NC(CC(=O)NCc1cc(Cl)ccc1Cl)c1ccc(C(=O)Nc2ccncc2)cc1 (stereo unspecified)
0.5 to 5 | CN(CC(N)c1ccc(C(=O)Nc2ccncc2)cc1)C(=O)C1(c2ccc(F)cc2)CCC1 (stereo unspecified)
0.05 to 0.5 | CCCCNNC(=O)CC(N)c1ccc(C(=O)Nc2ccncc2)cc1 (stereo unspecified)
0.5 to 5 | CN(CC(N)c1ccc(C(=O)Nc2ccncc2)cc1)C(=O)C1CCCc2sccc21 (stereo unspecified)

IC50 [µM] | SMILES
0.5 to 5 | NC(CNC(=O)c1cccc(Br)c1)c1ccc(C(=O)Nc2ccncc2)cc1 (stereo unspecified)
0.5 to 5 | COc1ccc(CC(=O)N2CCCC2C(N)c2ccc(C(=O)Nc3ccncc3)cc2)cc1F (stereo unspecified)
0.05 to 0.5 | NC(CC(=O)NCCc1c(Cl)cccc1Cl)c1ccc(C(=O)Nc2ccncc2)cc1 (stereo unspecified)
0.5 to 5 | NC(CNC(=O)c1cc2cc(F)ccc2[nH]1)c1ccc(C(=O)Nc2ccncc2)cc1 (stereo unspecified)
0.05 to 0.5 | COc1cc(CCNC(=O)CC(N)c2ccc(C(=O)Nc3ccncc3)cc2)cc(OC)c1 (stereo unspecified)
0.5 to 5 | NC(CNC(=O)c1cc2ccccc2[nH]1)c1ccc(C(=O)Nc2ccncc2)cc1 (stereo unspecified)
0.5 to 5 | COc1ccc(NC(=S)NCC(N)c2ccc(C(=O)Nc3ccncc3)cc2)cc1 (stereo unspecified)
0.05 to 0.5 | NC(CNC(=O)c1ccc2c(c1)OCO2)c1ccc(C(=O)Nc2ccncc2)cc1 (stereo unspecified)
0.5 to 5 | NC(c1ccc(C(=O)Nc2ccncc2)cc1)C1CCCN1C(=O)Cc1ccc(-c2ccccc2)cc1 (stereo unspecified)
0.05 to 0.5 | NC(CC(=O)NCCc1ccc(Cl)cc1)c1ccc(C(=O)Nc2ccncc2)cc1 (stereo unspecified)
0.05 to 0.5 | NC(CNC(=O)Nc1ccc(Cl)cc1)c1ccc(C(=O)Nc2ccncc2)cc1 (stereo unspecified)
0.5 to 5 | COc1ccc(CC(=O)N2CCCC2C(N)c2ccc(C(=O)Nc3ccncc3)cc2)c(OC)c1 (stereo unspecified)
0.5 to 5 | NC(CNC(=O)CC1CCCCC1)c1ccc(C(=O)Nc2ccncc2)cc1 (stereo unspecified)
0.05 to 0.5 | Cc1cccc(CC(=O)NCC(N)c2ccc(C(=O)Nc3ccncc3)cc2)c1 (stereo unspecified)
0.5 to 5 | CC(C)C(C(=O)N(C)CC(N)c1ccc(C(=O)Nc2ccncc2)cc1)c1ccc(Cl)cc1 (stereo unspecified)
0.5 to 5 | CN(CC(N)c1ccc(C(=O)Nc2ccncc2)cc1)C(=O)C(C)(C)c1ccsc1 (stereo unspecified)
0.5 to 5 | COc1cccc(CC(=O)N2CCCC2C(N)c2ccc(C(=O)Nc3ccncc3)cc2)c1 (stereo unspecified)
0.05 to 0.5 | N[C@@H](CC(=O)NCc1ccc(F)cc1)c1ccc(C(=O)Nc2ccncc2)cc1
0.5 to 5 | CCCCC(=O)NCC(N)c1ccc(C(=O)Nc2ccncc2)cc1 (stereo unspecified)
0.05 to 0.5 | NC(CC(=O)Nc1ccc(CO)cc1)c1ccc(C(=O)Nc2ccncc2)cc1 (stereo unspecified)
0.5 to 5 | COc1ccccc1CC(=O)N(C)CC(N)c1ccc(C(=O)Nc2ccncc2)cc1 (stereo unspecified)
0.05 to 0.5 | NC(CNC(=O)Cc1csc(-c2ccccc2)n1)c1ccc(C(=O)Nc2ccncc2)cc1 (stereo unspecified)
0.5 to 5 | NC(CNC(=O)CCc1cccnc1)c1ccc(C(=O)Nc2ccncc2)cc1 (stereo unspecified)
0.05 to 0.5 | Cc1cccc(CNC(=O)CC(N)c2ccc(C(=O)Nc3ccncc3)cc2)c1 (stereo unspecified)
0.05 to 0.5 | COCCNC(=O)CC(N)c1ccc(C(=O)Nc2ccncc2)cc1 (stereo unspecified)
0.5 to 5 | CC(C)=NOC(C)C(=O)NCC(N)c1ccc(C(=O)Nc2ccncc2)cc1 (stereo unspecified)

IC50 [µM] | SMILES
0.05 to 0.5 | CC(NC(=O)CC(N)c1ccc(C(=O)Nc2ccncc2)cc1)c1ccccc1 (stereo unspecified)
0.5 to 5 | NC(CNC(=O)NC1CCCCC1)c1ccc(C(=O)Nc2ccncc2)cc1 (stereo unspecified)
0.5 to 5 | CN(CC(N)c1ccc(C(=O)Nc2ccncc2)cc1)C(=O)C1(c2ccccc2)CC1 (stereo unspecified)
0.5 to 5 | CN(C)CCCC(=O)NCC(N)c1ccc(C(=O)Nc2ccncc2)cc1 (stereo unspecified)
0.5 to 5 | NC(c1ccc(C(=O)Nc2ccncc2)cc1)C1CCCN1C(=O)Cc1ccc(Cl)cc1F (stereo unspecified)
0.5 to 5 | CC(C)(C(=O)N1CCCC1C(N)c1ccc(C(=O)Nc2ccncc2)cc1)c1ccsc1 (stereo unspecified)
0.05 to 0.5 | NC(CC(=O)NCCc1ccccc1)c1ccc(C(=O)Nc2ccncc2)cc1 (stereo unspecified)
0.05 to 0.5 | NC(CC(=O)NCCc1ccc(C(F)(F)F)cc1)c1ccc(C(=O)Nc2ccncc2)cc1 (stereo unspecified)
0.5 to 5 | NC(c1ccc(C(=O)Nc2ccncc2)cc1)C1CCCN1C(=O)Cc1ccc(C(F)(F)F)cc1 (stereo unspecified)
0.05 to 0.5 | COc1cccc(CCNC(=O)CC(N)c2ccc(C(=O)Nc3ccncc3)cc2)c1 (stereo unspecified)
0.5 to 5 | CN(CC(N)c1ccc(C(=O)Nc2ccncc2)cc1)C(=O)Cc1ccc(F)cc1Cl (stereo unspecified)
0.5 to 5 | COc1ccc(CCNC(=O)CC(N)c2ccc(C(=O)Nc3ccncc3)cc2)cc1OC (stereo unspecified)
0.5 to 5 | NC(c1ccc(C(=O)Nc2ccncc2)cc1)C1CCCN1C(=O)Cc1ccc(Cl)cc1 (stereo unspecified)
0.5 to 5 | NC(c1ccc(C(=O)Nc2ccncc2)cc1)C1CCCN1C(=O)C1(c2ccc(F)cc2Cl)CC1 (stereo unspecified)
0.05 to 0.5 | NC(CC(=O)NCc1ccccc1)c1ccc(C(=O)Nc2ccncc2)cc1 (stereo unspecified)
0.05 to 0.5 | NC(CC(=O)NC(Cc1ccccc1)c1ccccc1)c1ccc(C(=O)Nc2ccncc2)cc1 (stereo unspecified)
5 to 50 | CN(CC(N)c1ccc(C(=O)Nc2ccncc2)cc1)C(=O)C(c1ccccc1)C1CCCC1 (stereo unspecified)
0.05 to 0.5 | NC(c1ccc(C(=O)Nc2ccncc2)cc1)C1CCCN1C(=O)C1CCCc2sccc21 (stereo unspecified)
0.5 to 5 | NC(c1ccc(C(=O)Nc2ccncc2)cc1)C1CCCN1C(=O)C1(c2ccc(Cl)c(Cl)c2)CCC1 (stereo unspecified)
0.05 to 0.5 | COc1ccc2c(c1)CCCC2C(=O)NCC(N)c1ccc(C(=O)Nc2ccncc2)cc1 (stereo unspecified)
0.5 to 5 | NC(CNC(=O)c1ccccn1)c1ccc(C(=O)Nc2ccncc2)cc1 (stereo unspecified)
0.05 to 0.5 | CS(=O)(=O)NCCNC(=O)CC(N)c1ccc(C(=O)Nc2ccncc2)cc1 (stereo unspecified)
0.05 to 0.5 | NC(CNC(=O)Nc1cccc2ccccc12)c1ccc(C(=O)Nc2ccncc2)cc1 (stereo unspecified)
0.05 to 0.5 | CC(C)(Cc1ccc(F)cc1)NC(=O)CC(N)c1ccc(C(=O)Nc2ccncc2)cc1 (stereo unspecified)
0.05 to 0.5 | NC(CC(=O)NC(c1ccccc1)c1ccccc1)c1ccc(C(=O)Nc2ccncc2)cc1 (stereo unspecified)
0.5 to 5 | NC(c1ccc(C(=O)Nc2ccncc2)cc1)C1CCCN1C(=O)Cc1c[nH]c2ccccc12 (stereo unspecified)

IC50 [µM] | SMILES
0.5 to 5 | NC(c1ccc(C(=O)Nc2ccncc2)cc1)C1CCCN1C(=O)C1(c2cccs2)CC1 (stereo unspecified)
0.05 to 0.5 | NC(CC(=O)NCc1ccccc1OC(F)(F)F)c1ccc(C(=O)Nc2ccncc2)cc1 (stereo unspecified)
0.5 to 5 | CN(CC(N)c1ccc(C(=O)Nc2ccncc2)cc1)C(=O)Cc1cccc(F)c1F (stereo unspecified)
0.05 to 0.5 | CC[C@@H](NC(=O)CC(N)c1ccc(C(=O)Nc2ccncc2)cc1)c1ccc(C)cc1 (stereo partly specified)
0.05 to 0.5 | NC(CC(=O)Nc1ccc2cc[nH]c2c1)c1ccc(C(=O)Nc2ccncc2)cc1 (stereo unspecified)
0.05 to 0.5 | NC(CNC(=O)CC(c1ccccc1)c1ccccc1)c1ccc(C(=O)Nc2ccncc2)cc1 (stereo unspecified)
0.5 to 5 | CN(CC(N)c1ccc(C(=O)Nc2ccncc2)cc1)C(=O)Cc1ccc(Br)cc1 (stereo unspecified)
0.05 to 0.5 | NC(CNC(=O)C1(c2ccc(Cl)c(Cl)c2)CCC1)c1ccc(C(=O)Nc2ccncc2)cc1 (stereo unspecified)
0.5 to 5 | NC(c1ccc(C(=O)Nc2ccncc2)cc1)C1CCCN1C(=O)Cc1csc(-c2ccccc2)n1 (stereo unspecified)
0.5 to 5 | CN(CC(N)c1ccc(C(=O)Nc2ccncc2)cc1)C(=O)Cc1c[nH]c2ccccc12 (stereo unspecified)
0.5 to 5 | NC(CNC(=O)c1csc(-c2ccccc2)n1)c1ccc(C(=O)Nc2ccncc2)cc1 (stereo unspecified)
0.5 to 5 | CC(C)(C)c1ccc(NC(=O)NCC(N)c2ccc(C(=O)Nc3ccncc3)cc2)cc1 (stereo unspecified)
0.05 to 0.5 | CC(Cc1ccc(Cl)cc1)NC(=O)CC(N)c1ccc(C(=O)Nc2ccncc2)cc1 (stereo unspecified)
0.5 to 5 | CN(CC(N)c1ccc(C(=O)Nc2ccncc2)cc1)C(=O)Cc1ccc2c(c1)OCO2 (stereo unspecified)
0.05 to 0.5 | NC(CNC(=O)C1(c2ccc(F)c(F)c2)CCC1)c1ccc(C(=O)Nc2ccncc2)cc1 (stereo unspecified)
0.5 to 5 | NC(CNC(=O)Cc1c(F)cccc1F)c1ccc(C(=O)Nc2ccncc2)cc1 (stereo unspecified)
0.5 to 5 | CN(CC(N)c1ccc(C(=O)Nc2ccncc2)cc1)C(=O)Cc1ccc(F)cc1F (stereo unspecified)
0.5 to 5 | Cc1ccc(C)c(CC(=O)NCC(N)c2ccc(C(=O)Nc3ccncc3)cc2)c1 (stereo unspecified)
0.5 to 5 | NC(CNC(=O)C1(c2ccccc2)CC1)c1ccc(C(=O)Nc2ccncc2)cc1 (stereo unspecified)
0.5 to 5 | NC(CNC(=O)C1CCCC1)c1ccc(C(=O)Nc2ccncc2)cc1 (stereo unspecified)
0.05 to 0.5 | CCOc1ccccc1CCNC(=O)CC(N)c1ccc(C(=O)Nc2ccncc2)cc1 (stereo unspecified)
0.5 to 5 | NC(c1ccc(C(=O)Nc2ccncc2)cc1)C1CCCN1C(=O)Cc1c(Cl)cccc1Cl (stereo unspecified)
0.05 to 0.5 | NC(CNC(=O)Cc1ccc(F)cc1)c1ccc(C(=O)Nc2ccncc2)cc1 (stereo unspecified)

— the Kinase Knowledgebase extract (Sharma et al. 2016)
